Test results taken from patent US12466803B2 (priority 2021, dated 2025).

Tested on: phospho (S293) BCKDHA in human skeletal myocytes
Assay: Phospho BCKDHA Alpha Surefire Cell Assay
Assay type: cell-based
Conditions: 60 minutes with compound, geometric mean

Compared with COc1c(F)cc(Cl)c(-c2c(C(=O)O)sc3cc(F)ccc23)c1F (atropisomer, axis not shown) [Example 15, 3-(6-Chloro-2,4-difluoro-3-methoxyphenyl)-6-fluoro-1-benzothiophene-2-carboxylic acid, ATROP-1], C[C@@H]1CCc2cc(-c3c(C(=O)O)sc4cc(F)ccc34)c(F)cc2O1 (single isomer, unassigned) [Example 69, 6-fluoro-3-(7-fluoro-2-methyl-3,4-dihydro-2H-1-benzopyran-6-yl)-1-benzothiophene-2-carboxylic acid, ENANT-2] is lower in IC50: > 60000 nM for the first, 3600 nM for the second. The second is the more potent here.

Same assay, conditions: Homo sapiens, 1 h, 60 minutes with compound, geometric mean

Going from O=C(O)c1sc2cc(Cl)ccc2c1-c1ccc(Cl)c(F)c1 [Example 20, 6-Chloro-3-(4-chloro-3-fluorophenyl)-1-benzothiophene-2-carboxylic acid] to Cc1c(Cl)ccc(-c2c(C(=O)O)sc3cc(Cl)ccc23)c1F [Example 146, 6-chloro-3-(4-chloro-2-fluoro-3-methylphenyl)-1-benzothiophene-2-carboxylic acid], the IC50 falls from 2400 nM to 110 nM (22-fold). The second is the more potent here.

C[C@@H]1CCc2cc(-c3c(C(=O)O)sc4cc(F)ccc34)cc(F)c2O1 (single isomer, unassigned) [Example 72, 6-fluoro-3-(8-fluoro-2-methyl-3,4-dihydro-2H-1-benzopyran-6-yl)-1-benzothiophene-2-carboxylic acid, ENANT-1] and CC1CCc2cc(-c3c(C(=O)O)sc4cc(F)ccc34)cc(F)c2O1 (stereo not drawn) [Example 71, 6-fluoro-3-(8-fluoro-2-methyl-3,4-dihydro-2H-1-benzopyran-6-yl)-1-benzothiophene-2-carboxylic acid] are the same in IC50: 4500 nM for the first, 4500 nM for the second.

Going from O=C(O)c1sc2cc(Cl)ccc2c1-c1ccc(F)c(F)c1F [Example 33, 6-chloro-3-(2,3,4-trifluorophenyl)-1-benzothiophene-2-carboxylic acid] to O=C(O)c1sc2cc(F)ccc2c1-c1ccc(F)c(F)c1F [Example 19, 6-Fluoro-3-(2,3,4-trifluorophenyl)-1-benzothiophene-2-carboxylic acid], the IC50 rises from 1100 nM to 4400 nM (4-fold).

Going from Cc1cc(-c2c(C(=O)O)sc3cc(F)ccc23)c(F)cc1F [Example 95, 3-(2,4-difluoro-5-methylphenyl)-6-fluoro-1-benzothiophene-2-carboxylic acid] to O=C(O)c1sc2cc(F)ccc2c1-c1cc(Cl)c(F)cc1F [Example 108, 3-(5-chloro-2,4-difluorophenyl)-6-fluoro-1-benzothiophene-2-carboxylic acid], the IC50 falls from 1000 nM to 620 nM (1.6-fold). The second is the more potent here.

Going from COc1ccc(F)c(-c2c(C(=O)O)sc3cc(Cl)ccc23)c1F [Example 129, 6-chloro-3-(2,6-difluoro-3-methoxyphenyl)-1-benzothiophene-2-carboxylic acid] to COc1ccc(F)c(-c2c(C(=O)O)sc3cc(F)ccc23)c1F [Example 55, 3-(2,6-difluoro-3-methoxyphenyl)-6-fluoro-1-benzothiophene-2-carboxylic acid], the IC50 falls from 1800 nM to 1100 nM (1.6-fold). The second is the more potent here.

O=C(O)c1sc2cc(F)ccc2c1-c1c(F)cccc1F [Example 48, 3-(2,6-difluorophenyl)-6-fluoro-1-benzothiophene-2-carboxylic acid] and CCOc1ccc(F)c(-c2c(C(=O)O)sc3cc(F)ccc23)c1F [Example 93, 3-(3-ethoxy-2,6-difluorophenyl)-6-fluoro-1-benzothiophene-2-carboxylic acid] are within 1.5-fold of each other in IC50: 12000 nM for the first, 17000 nM for the second.

Going from COc1cccc(-c2c(C(=O)O)sc3cc(Cl)ccc23)c1F [Example 30, 6-chloro-3-(2-fluoro-3-methoxyphenyl)-1-benzothiophene-2-carboxylic acid] to Cc1c(F)ccc(-c2c(C(=O)O)sc3cc(Cl)ccc23)c1F [Example 141, 6-chloro-3-(2,4-difluoro-3-methylphenyl)-1-benzothiophene-2-carboxylic acid], the IC50 falls from 2600 nM to 230 nM (11-fold).

Going from O=C(O)c1sc2cc(F)ccc2c1-c1ccc2c(c1F)CCCO2 [Example 32, 6-fluoro-3-(5-fluoro-3,4-dihydro-2H-1-benzopyran-6-yl)-1-benzothiophene-2-carboxylic acid] to O=C(O)c1sc2cc(F)ccc2c1-c1ccc2c(c1F)OCCC2 [Example 66, 6-fluoro-3-(8-fluoro-3,4-dihydro-2H-1-benzopyran-7-yl)-1-benzothiophene-2-carboxylic acid], the IC50 rises from 1900 nM to 3800 nM (2-fold). The first is the more potent here.

Compared with COc1cc(-c2c(C(=O)O)sc3cc(F)ccc23)c(F)c(F)c1Cl [Example 114, 3-(4-chloro-2,3-difluoro-5-methoxyphenyl)-6-fluoro-1-benzothiophene-2-carboxylic acid], COc1cc(-c2c(C(=O)O)sc3cc(F)ccc23)c(F)cc1Cl [Example 36, 3-(4-chloro-2-fluoro-5-methoxyphenyl)-6-fluoro-1-benzothiophene-2-carboxylic acid] is 1.7-fold higher in IC50: 1800 nM for the first, 3000 nM for the second.

First: COc1c(F)c(F)cc(-c2c(C(=O)O)sc3cc(Cl)ccc23)c1F [Example 12, Ammonium 6-chloro-3-(2,4,5-trifluoro-3-methoxyphenyl)-1-benzothiophene-2-carboxylate]
Second: COc1c(F)cc(F)c(-c2c(C(=O)O)sc3cc(Cl)ccc23)c1F [Example 63, 6-chloro-3-(2,4,6-trifluoro-3-methoxyphenyl)-1-benzothiophene-2-carboxylic acid]
The IC50 of the first is 1.5-fold higher: 110 nM for the first, 71 nM for the second. The second is the more potent here.

Going from O=C(O)c1sc2cc(F)ccc2c1-c1ccc(F)c(C2CC2)c1F [Example 147, 3-(3-cyclopropyl-2,4-difluorophenyl)-6-fluoro-1-benzothiophene-2-carboxylic acid] to CC1CCc2c(ccc(-c3c(C(=O)O)sc4cc(F)ccc34)c2F)O1 (stereo not drawn) [Example 76, 6-fluoro-3-(5-fluoro-2-methyl-3,4-dihydro-2H-1-benzopyran-6-yl)-1-benzothiophene-2-carboxylic acid], the IC50 rises from 190 nM to 3600 nM (19-fold). The first is the more potent here.

Compared with COc1c(F)cc(Cl)c(-c2c(C(=O)O)sc3cc(F)ccc23)c1F [Example 14, 3-(6-Chloro-2,4-difluoro-3-methoxyphenyl)-6-fluoro-1-benzothiophene-2-carboxylic acid], COc1c(F)cc(F)c(-c2c(C(=O)O)sc3cc(F)ccc23)c1Cl [Example 154, 3-(2-chloro-4,6-difluoro-3-methoxyphenyl)-6-fluoro-1-benzothiophene-2-carboxylic acid] is 180-fold higher in IC50: 23 nM for the first, 4200 nM for the second. The first is the more potent here.

Compared with COc1c(C#N)ccc(-c2c(C(=O)O)sc3cc(F)ccc23)c1F [Example 49, 3-(4-cyano-2-fluoro-3-methoxyphenyl)-6-fluoro-1-benzothiophene-2-carboxylic acid], COc1c(Cl)ccc(-c2c(C(=O)O)sc3cc(F)ccc23)c1F [Example 79, 3-(4-chloro-2-fluoro-3-methoxyphenyl)-6-fluoro-1-benzothiophene-2-carboxylic acid] is 33-fold lower in IC50: 7500 nM for the first, 230 nM for the second.

C[C@@H]1CCc2cc(-c3c(C(=O)O)sc4cc(Cl)ccc34)ccc2O1 (single isomer, unassigned) [Example 41, 6-chloro-3-(2-methyl-3,4-dihydro-2H-1-benzopyran-6-yl)-1-benzothiophene-2-carboxylic acid, ENANT-1] and C[C@@H]1CCc2cc(-c3c(C(=O)O)sc4cc(F)ccc34)ccc2O1 (single isomer, unassigned) [Example 43, 6-fluoro-3-(2-methyl-3,4-dihydro-2H-1-benzopyran-6-yl)-1-benzothiophene-2-carboxylic acid, ENANT-1] cannot be ordered by IC50: > 40000 nM for the first, > 60000 nM for the second.

First: O=C(O)c1sc2cc(F)ccc2c1-c1c(F)cc(F)cc1Cl [Example 148, 3-(2-chloro-4,6-difluorophenyl)-6-fluoro-1-benzothiophene-2-carboxylic acid]
Second: O=C(O)c1sc2cc(F)ccc2c1-c1cc(F)cc(F)c1Cl [Example 111, ammonium 3-(2-chloro-3,5-difluorophenyl)-6-fluoro-1-benzothiophene-2-carboxylate]
The IC50 of the first is lower: 4000 nM for the first, > 60000 nM for the second. The first is the more potent here.

O=C(O)c1sc2cc(Cl)ccc2c1-c1cc(F)c(F)cc1F [Example 133, 6-chloro-3-(2,4,5-trifluorophenyl)-1-benzothiophene-2-carboxylic acid] and Cc1cc(-c2c(C(=O)O)sc3cc(Cl)ccc23)c(F)cc1F [Example 137, 6-chloro-3-(2,4-difluoro-5-methylphenyl)-1-benzothiophene-2-carboxylic acid] are within 1.5-fold of each other in IC50: 730 nM for the first, 540 nM for the second.

First: CCc1c(F)ccc(-c2c(C(=O)O)sc3cc(Cl)ccc23)c1F [Example 143, 6-chloro-3-(3-ethyl-2,4-difluorophenyl)-1-benzothiophene-2-carboxylic acid]
Second: Cc1c(Cl)ccc(-c2c(C(=O)O)sc3cc(F)ccc23)c1F [Example 38, 3-(4-chloro-2-fluoro-3-methylphenyl)-6-fluoro-1-benzothiophene-2-carboxylic acid]
The IC50 of the first is 2.3-fold lower: 200 nM for the first, 460 nM for the second. The first is the more potent here.

First: CC1COc2cc(-c3c(C(=O)O)sc4cc(F)ccc34)ccc2C1 (stereo not drawn) [Example 40, 6-fluoro-3-(3-methyl-3,4-dihydro-2H-1-benzopyran-7-yl)-1-benzothiophene-2-carboxylic acid]
Second: C[C@@H]1CCc2cc(-c3c(C(=O)O)sc4cc(F)ccc34)c(F)cc2O1 (single isomer, unassigned) [Example 68, 6-fluoro-3-(7-fluoro-2-methyl-3,4-dihydro-2H-1-benzopyran-6-yl)-1-benzothiophene-2-carboxylic acid, ENANT-1]
The IC50 of the first is higher: > 54000 nM for the first, 6000 nM for the second. The second is the more potent here.

Going from COc1c(F)c(F)cc(-c2c(C(=O)O)sc3ccccc23)c1F [Example 157, 3-(2,4,5-trifluoro-3-methoxyphenyl)-1-benzothiophene-2-carboxylic acid] to COCc1c(F)c(F)cc(-c2c(C(=O)O)sc3cc(F)ccc23)c1F [Example 53, 6-fluoro-3-[2,4,5-trifluoro-3-(methoxymethyl)phenyl]-1-benzothiophene-2-carboxylic acid], the IC50 rises from 230 nM to 4200 nM (18-fold). The first is the more potent here.

Compared with O=C(O)c1sc2cc(F)ccc2c1-c1c(F)c(F)cc(F)c1F [Example 140, 6-fluoro-3-(2,3,5,6-tetrafluorophenyl)-1-benzothiophene-2-carboxylic acid], CCc1ncc(F)c(-c2c(C(=O)O)sc3cc(F)ccc23)c1F [Example 110, 3-(2-ethyl-3,5-difluoropyridin-4-yl)-6-fluoro-1-benzothiophene-2-carboxylic acid] is 6.9-fold lower in IC50: 3800 nM for the first, 550 nM for the second. The second is the more potent here.
